In patent publication US6200962A, “Thionophosphate derivatives, process for their preparation and pharmaceutical compositions containing them” (priority 1994, dated 2001):

What was measured:
[1] = Pro-oxidative effect: oxygen consumption with copper; settings: for oxygen consumption: 10 mM, Cu2+ 10 mM, pH 7.2, 37 °C; for Rate of oxygen consumption: Table 1, 10 mM with Cu2+ 10 mM
Procedure: Oxygen consumption from solutions that contained AMTPs or other antioxidants such as cystine or ascorbic acid at 10 mM each, and copper sulfate 10 mM, was monitored by Biological Oxygen Monitor, model YSI 53.
AMTP molecules (10 mM) were incubated at pH=7.2 37° C. with Cu^2+ (10 mM). Oxygen consumption from the solution was measured with a Clark electrode (biological oxygen monitor). No oxygen consumption was observed from the solution. […] The oxygen consumption rate is referred to free radical production rate.

[2] = oil(mineral)/water and octanol/water partitioning; type: physicochemical; settings: for logP: octanol/water, read-out: P (octanol/water) (converted); for P (oil/water): oil(mineral)/water
Description: The basic chemical structure of the compounds of the invention includes the group --P--N=S, which resembles the thiourea --N--C=S core, in which the central carbon atom has been replaced by a phosphorus atom, to give --N--P=S, which is the characteristic functional group the novel compounds of the invention. This functional group is based on a primary amido thionophosphate (AMTP) chemical bond. The specific compounds shown in FIG. 1, which are only representative of the numerous possible compounds, differ in their oil(mineral) /water and octanol/water partitioning: […]

[3] = Hydroxyl radical deoxyribose assay
Procedure: A modification of the assay described by Halliwell et al. [Halliwell, B. et al. (1987) Analyt. Biochem. 165:215-219] was developed. 2-Deoxyribose was purchased form Sigma Chemical Co. All other chemicals for the assay were purchased from BDH Chemicals Ltd. Degradation of deoxy ribose was achieved bv a mixture of Fe^2+, EDTA, ascorbic acid and H2 O2. […] The reaction mixture was incubated for 1 h at 37° C. Scavenging of hydroxyl radical was done by various concentrations of AMTP (compound C), and color was developed by reaction with thiobarbituric acid as described [Halliwell, B. et al., ibid.]
A^-1 =A0^-1 {1+K[S]×(KDR [DR])^-1 } Equation 1
where A is the absorbance in the presence of a scavenger S (AMTPs) at a concentration [S] and A0 is the absorbance in the absence of a scavenger KDR =3.1*10^9 (reaction constant between deoxyribose and OH. radical) [Ebert, M., et al. (1965) Pulse Radiolysis, Academic Press, London] and [DR]=18 mM. […] Considering the fast reaction between H2 O2 and Fe^2+ --NTA and the slow reaction rate between AMTP and hydrogen peroxide as monitored in the ^31 P experiments (FIG. 5), the light decay may be exclusively attributed to hydroxyl radical scavenging.

[4] = Lipid hydroperoxides in partially oxidized SUV liposomes; settings: 5 mM
Procedure: SUV liposomes were prepared from egg lecitin at 10% lipid concentration in a 50 ml HEPES buffer pH=6.9 according to already published procedures [Lichtenberg, D. and Barenholz. Y. (1988) Methods of Biochemical Analysis 33:337-462].
Lipid hydroperoxides were monitored by a modified micromolar sensitive spectroscopic method [Siddiqi, A. M. and Tappel, A. L. (1955) Chemist Analyst 44:52]. 50λ of lipids (liposomes or emulsion) were dissolved in 1 ml ethanol. 50λ of 50% potassium iodide solution were then added and the mixture was incubated for half an hour in the dark. The developed color was read in a spectrophotometer at 400 nm.
SUV Liposomes (12.5 mM) with certain degrees of oxidation were incubated with 5 mM AMTP molecules for period of 24 h. Peroxidation number (PN) was measured with potassium iodide in ethanol. AMTPs were able to decompose lipid hvdroperoxide and to reduce the peroxidation number (PN).

Human skin fibroblasts = test: Chromium release from fibroblasts, killing by streptolysin S and glucose oxidase; type: cell-based
Procedure: Human skin fibroblasts were kindly supplied by the Department for Human Genetics at Hadassa Hospital in Jerusalem. The cells were grown in D-MEM medium supplemented with glutamine, penicillin, and streptomycin and 10% fetal calf serum [Ginsburg, I. et al. (1992) Inflammation 16:519-538]. Radiolabeled cell monolayers were prepared by the addition of 10 μCi/ml of [^51 Cr]NaCrO4 (New England Nuclear) to […] of trypsinized cells grown in 75-ml tissue culture bottles. The cells were then dispensed into 24-well tissue culture plates (Nunc, Roskilde, Denmark) and grown to confluency in a CO2 incubator.
Hydrogen peroxide flux was generated by the addition of glucose oxidase (0.5 units/ml) to the tissue culture media. Streptolysin S (SLS) of Croup A Streptococci (17 hemolytic units/ml) was employed as a membrane damaging agent.
Culture monolayers were treated for 1 h with the agents listed above. The cultures were monitored periodically for changes in cell morphology. To assess cytotoxicity, the supernatant fluids were removed and centrifuged at 2000 rpm for 2 min. The solubilized radioactivity was then determined in a Contron gamma counter. The total radioactivity associated with untreated controls was solubilized by the addition of 1 ml of 1% Triton X-100. (AMTPs influence on SLS hemolytic activity and on glucose oxidase activity was also tested. No influences were observed).
Fibroblasts in culture were exposed to a synergistic killing mechanism (streptolysin S in combination with an oxidant glucose oxidase) in a D-MEM culture medium that contained 1 mg/ml of glucose (about 0.5-1 mM of H2 O2 was produced after 1 hour of incubation at 37° C.). This system caused about 60% chromium released within an hour. […] The positive controls were DMTU and catalase.

[5] = literature; cited from earlier work
BSA [6] = test: BSA oxidation by NaOCl, fluorescence (tryptophan); settings: NaOCl 1 mM
Procedure: BSA (0.5 mg/ml) in a 1 ml HEPES Buffer pH=7.2(50 mM) was incubated for 15 min with 1 mM sodium hypochlorite. Various concentrations of AMTP (compound B) were added to protect the protein. The sample was diluted in 3 ml of HEPES buffer and fluorescence was measured (lex =280 nm, lem =345 nm) in a JASCO FP-770 spectrotluorometer. Fluorescence decav was due to tryptophan and tyrosine oxidation. Alternatively, BAS (0.5 mg/ml) in HEPES buffer (1 ml) was incubated with 2,2'-azobis-(2-amidinopropane)-HCL (AAPH) (a water soluble peroxy radical initiator) (50 mM) at 37° C. for a period of 4 h. The sample was diluted with 2 ml of the buffer and fluorescence was measured [Hazell, L. and Stocker, R. (1993) Biochem. J. 290:165-172].
(§1) BSA's tryptophan oxidation and BSA's cystine oxidation were the models for protein damage by NaOCl (FIG. 11 and FIG. 12 respectively). BSA fluorescence intensity decreased following oxidative stress of NaOCI (1 mM). […] Out of the three AMTP compounds the most lipophilic (A) was best in preventing the damage and provided 94% protection on the protein.

BSA [7] = test: BSA's cystine oxidation by NaOCl (DTNB); settings: NaOCl 1 mM
Procedure: BSA (0.5 mg/ml) in Imi HEPES buffer pH=7.2(50 mM) was incubated with sodium hypochlorite (1 mM) for 15 min. The protein was dialyzed for 2 h against 2×500 vol of HEPES buffer to remove free sodium hypochlorite. 301 DTNB 0.015 M in water was then added to the protein solution and color was measured at 420 nm. AMTPs were added to the protein sample to protect it against sodium hypochlorite [Hazell and Stocker, ibid.].
as §1

[8] = Solubility in D-MEM medium; type: physicochemical; settings: not soluble above this concentration

O=C1O[C@H]([C@@H](O)CO)C(O)=C1O [Ascorbic acid]
oxygen consumption [1]: significant oxygen consumption
Rate of oxygen consumption [1]: 2.87e-05 M/min

CCOP(=S)(NCCC(=O)O)OCC [Compound C, 2-carboxyamidodiethyl thionophosphate]
logP [2]: -0.357
P (oil/water) [2]: 0.39
reaction rate constant with hydroxyl radicals ([3]; calculated from equation 1, 18 mM deoxyribose): 1.5×10^9 M^-1 S^-1
hydroxyl radical scavenging ([3]; deoxyribose degradation): potent hydroxyl radical scavengers
reduction of PN, comparative ([4]; first few hours of incubation): more efficient in the first few hours
toxic effects on the cell (Human skin fibroblasts; concentrations of up to 20 mM, compound alone): did not show any toxic effects
protection against cell killing (Human skin fibroblasts; concentrations up to 10 mM, 60 min): 50-60%

NC(=S)Nc1cccc2ccccc12 [α-naphthyl-thiourea]
LD50 [5]: about 10 mg/kg

N[C@@H](CSSC[C@H](N)C(=O)O)C(=O)O [cystine]
oxygen consumption [1]: significant oxygen consumption
Rate of oxygen consumption [1]: 2.35e-06 M/min

CNC(=S)NC [DMTU, N,N'-dimethyl thiourea]
toxicity [5]: considered a toxic compound

CCCCNP(=S)(OCC)OCC [Compound A, n-butylamido diethylthioiiophosphate]
logP [2]: 0.788
P (oil/water) [2]: 4.82
reduction of PN, comparative ([4]; after 24 h): more effective in reducing PN
protection of BSA fluorescence (BSA [6]): 94%
protection of BSA's cystines (BSA [7]): strong protection
inhibition at 2000 µM (Human skin fibroblasts; Homo sapiens, Skin fibroblast, 1 h, 2 mM, read-out: protection against cell killing): 10%
solubility [8]: ≤ 2000 µM
